Experiments:
Format in all cases: cell-based, human
HMEC [1] = experiment: Inhibition of contraction: alveologenesis after detachment of attached collagen gels; conditions: donor M10
Protocol: (§1) For contraction assays, 5×10^3 HMEC were plated or 3×10^3 sorted B+ cells/400 μl collagen gel and 1×10^4 LP cells/400 μl collagen gel. At day 12 of culture, 2 ng/μl TGF-β1 (R&D Systems) was added to the culture medium once. For inhibition of contraction experiments, 3×10^3 HMEC (Donor M10) were plated/400 μl collagen gel, and the gels were left attached to the culture dish. At day 13 of culture, when structures had formed, gels were detached and 10 μM Blebbistatin or 5 μM Y-27632 were added to the culture medium every 24 hours. To determine the number of cells per gel, collagen gels were minced using a scalpel, digested with 300 U/ml collagenase I (Sigma) for 1 hour at 37° C., followed by 0.15% trypsin (5 minutes at 37° C.), and filtered to obtain single cells. Cells were counted with a hemocytometer. Images of structures in the gels were acquired on a Leica DM IL LED microscope equipped with a HiPlan 10×/0.22 PH1 objective and images of whole gels were taken with a Zeiss SteREO Lumar.V12 microscope with a NeoLumar S 0.8×objective (6.4× Zoom).

freshly isolated HMEC = experiment: Structure formation by freshly isolated HMEC in floating collagen I gels
Text: Mammary gland tissue was obtained from healthy women undergoing reduction mammoplasty at the Nymphenburg Clinic for Plastic and Aesthetic Surgery (Christian Gabka), in accordance with the regulations of the ethics committee of the Ludwig-Maximilian University Munich (proposal 397-12). Single cell suspensions of primary HMEC were generated as previously described with minor modifications (Stingl et al., 2005). Briefly, the ductal tree was minced into about 1.0 mm^3 pieces and digested in collagenase I and hyaluronidase (both Sigma), and subsequently with Trypsin-EDTA and dispase (Life Technologies), and then cryopreserved. Before further processing, cells were filtered through a 40 μm strainer, to remove residual tissue fragments and cell aggregates. Cells were seeded in 2D on polystyrene cell culture plates or in collagen I gels in Mammary Epithelial Cell Growth Medium (MECGM, PromoCell) supplemented with 1% Pen/Strep (Invitrogen), 0.5% FCS (Pan Biotech), 3 μM Y-27632 (Biomol) and 10 μM Forskolin (Biomol), unless stated otherwise. After an establishment period of 5 days, medium was changed to MECGM supplemented with 1% Pen/Strep and 10 μM Forskolin, unless stated otherwise.
Single cell suspensions containing the desired amount of cells were quickly mixed with neutralizing solution, and acidified rat tail collagen I (Corning) was added, resulting in a final collagen I concentration of 1.3 mg/ml. Next, the gel mixture was plated into siloxane-coated 24-well or 48-well plates. After polymerization of the gel, medium with supplements was carefully added and gels were detached from the well. Attached and attached-to-floating gels were prepared in uncoated 24-well plates. Cells were maintained for 8 up to 20 days (shorter periods for quantification and longer periods for long term treatments).
Mammary gland tissue was obtained from healthy women undergoing reduction mammoplasty at the Nymphenburg Clinic for Plastic and Aesthetic Surgery (Prof. Christian Gabka), in accordance with the regulations of the ethics committee of the Ludwig-Maximilian University Munich (proposal 397-12). Single cell suspensions of primary HMEC were generated as previously described with minor modifications (Stingl et al., 2005). Briefly, the ductal tree was minced into about 1 mm^3 pieces and enzymatically digested in tissue digestion buffer (F12:DME/HEPES, 1.5% w/v BSA) supplemented with 1 μg/ml insulin, 300 U/ml collagenase and 100 U/ml hyaluronidase (all Sigma) at 37° C. over night. The stromal compartment was optionally separated by differential centrifugation and cryopreserved. The pellet enriched for epithelial cells was further dissociated in 0.15% Trypsin-EDTA and 5 mg/ml dispase (Life Technologies) and then cryopreserved. Before further processing, cells were filtered through a 40 μm strainer, to remove residual tissue fragments and cell aggregates. Freshly isolated primary HMEC were seeded in Mammary Epithelial Cell Growth Medium (MECGM, PromoCell) supplemented with 1% Pen/Strep (Invitrogen), 0.5% FCS (Pan Biotech), 3 μM Y-27632 (Biomol) and 10 μM Forskolin (Biomol), unless otherwise stated. After an establishment period of 5 days, medium was changed to MECGM supplemented 1% Pen/Strep and 10 μM Forskolin, unless otherwise stated. Upon establishment, medium was replaced every 3-4 days. Cells were maintained in 5% CO2, 3% O2 for the whole culture period. […]

HMEC [2] = experiment: ELDA of branched structure-forming units in floating collagen gels after 2D-culture; conditions: 2D-culture in presence of 10 μM Forskolin, donor M4
Text: Mammary gland tissue was obtained from healthy women undergoing reduction mammoplasty at the Nymphenburg Clinic for Plastic and Aesthetic Surgery (Christian Gabka), in accordance with the regulations of the ethics committee of the Ludwig-Maximilian University Munich (proposal 397-12). Single cell suspensions of primary HMEC were generated as previously described with minor modifications ([…] et al., 2005). Briefly, the ductal tree was minced into about 1.0 mm^3 pieces and digested in collagenase I and hyaluronidase (both Sigma), and subsequently with Trypsin-EDTA and dispase (Life Technologies), and then cryopreserved. Before further processing, cells were filtered through a 40 μm strainer, to remove residual tissue fragments and cell aggregates. Cells were seeded in 2D on polystyrene cell culture plates or in collagen I gels in Mammary Epithelial Cell Growth Medium (MECGM, PromoCell) supplemented with 1% Pen/Strep (Invitrogen), 0.5% FCS (Pan Biotech), 3 μM Y-27632 (Biomol) and 10 μM Forskolin (Biomol), unless stated otherwise. After an establishment period of 5 days, medium was changed to MECGM supplemented with 1% Pen/Strep and 10 μM Forskolin, unless stated otherwise. […] Gels with at least one branched structure were counted as positive. […] Limiting dilutions were analyzed using a webtool, as described previously (Hu and Smyth, 2009).

[3] = test system: B+ cells (CD10+/CD49fhi/EpCAM−); experiment: Contraction of floating collagen I gels containing B+ cell derived TDLU-like structures
Protocol: as §1, with “At day 12 of culture, 2 ng/μl TGF-β1 (R&D Systems) was added to the culture medium once.” left out
(§2) Size of gels, structures, and cells was determined with the ImageJ tool for measurement of areas. Quantification of structures was carried out using the ImageJ cell counter. Structures with at least two branching points were considered as branched. For branching point analysis, branches were traced, one main branch was set, and one branching point was counted for each side-branch.

LP cells (CD49f+/EpCAM+) = experiment: Contraction of floating collagen I gels containing LP-derived spheres; conditions: 2.0 ng/ml TGF-β1 once
Protocol: as §1, with “At day 12 of culture, 2 ng/μl TGF-β1 (R&D Systems) was added to the culture medium once.” left out
as §2

[4] = 10 μM Forskolin, continuous treatment, donor M8

## Cc1ccc2c(c1)C(=O)C1(O)CCN(c3ccccc3)C1=N2 (stereo not shown) [Blebbistatin]
HMEC [1]; 10 μM Blebbistatin every 24 hours from detachment at day 13
  acquisition of alveolar morphology after gel detachment: prevented

## C=C[C@@]1(C)CC(=O)[C@]2(O)[C@@]3(C)[C@@H](O)CCC(C)(C)[C@@H]3[C@H](O)[C@H](OC(C)=O)[C@@]2(C)O1 [Forskolin]
Freshly isolated HMEC; [4]
  increase of formation of TDLU-like branched structures: approximately 12 fold
  increase of formation of non-branched structures (mostly spheres): approximately 1.5 fold
  increase of overall branched structure-forming potential: 3 fold
HMEC [2]; passage 1
  cells giving rise to a TDLU-like structure (B-SFU): 1/290
HMEC [2]; passage 3
  cells giving rise to a TDLU-like structure (B-SFU): 1/250

## C[C@@H](N)[C@H]1CC[C@H](C(=O)Nc2ccncc2)CC1 [Y-27632]
HMEC [1]; 5 μM Y-27632 every 24 hours from detachment at day 13
  acquisition of alveolar morphology after gel detachment: prevented
Freshly isolated HMEC; 3 μM Y-27632, added upon plating, removed after 5 days, floating collagen I gels, day 14, donor M8
  increase of branched structure formation: approximately 5 fold
Freshly isolated HMEC; continuous Y-27632 after 5 days of initial culture, data not shown
  effect of continuous treatment on morphogenesis: dissolution of cell-cell adhesion

## TGF-β1: recombinant TGF-β1, morphogen that promotes contractility (R&D Systems)
[3]; TGF-β1-treated B+ derived structures, donor M8, phalloidin F-actin staining
  average cell size in treated structures versus controls: significantly smaller
[3]; one-time treatment with 2.0 ng/ml recombinant TGF-β1 at day 12 of culture, gel size 2 days later, donors M3, M10
  increase of contraction of the gels: approximately 2 fold
LP cells (CD49f+/EpCAM+); LP-derived spheres, donor M10
  effect on size of gels: did not have an effect
LP cells (CD49f+/EpCAM+); M3 luminal cells
  effect on size of gels: slight contraction

Source: US10900018B2, “Means and methods for generation of breast stem cells” (Helmholtz Zentrum München—Deutsches Forschungszentrum Für …, priority 2015, dated 2021)
